Activity calls are given as the source filed them. How the calls were made is not given here.

For 31 compounds, inhibition results are on record in ChEMBL document CHEMBL4418495, “Entpd5 inhibitors” (2012).

The target in test [1] is T1, Nucleoside diphosphate phosphatase ENTPD5 (Homo sapiens) (UniProt O75356).
T1 sequence (whole entry): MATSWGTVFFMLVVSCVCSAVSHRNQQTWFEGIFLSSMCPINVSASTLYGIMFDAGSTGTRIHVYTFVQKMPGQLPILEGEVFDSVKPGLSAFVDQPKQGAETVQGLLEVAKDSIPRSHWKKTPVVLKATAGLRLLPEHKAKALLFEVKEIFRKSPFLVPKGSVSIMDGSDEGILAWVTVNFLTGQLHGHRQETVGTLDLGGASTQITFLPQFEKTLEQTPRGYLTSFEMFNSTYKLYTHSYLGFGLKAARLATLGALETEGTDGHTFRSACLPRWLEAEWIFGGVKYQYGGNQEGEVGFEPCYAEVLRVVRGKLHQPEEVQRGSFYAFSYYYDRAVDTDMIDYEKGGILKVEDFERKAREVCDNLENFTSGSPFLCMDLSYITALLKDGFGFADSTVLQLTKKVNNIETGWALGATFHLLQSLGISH
Kind of test: Inhibition of human recombinant ENTPD5 expressed in insect cells assessed as reduction in reduction in UDP hydrolysis by measuring inorganic phosphate release incubated for 1 hr by malachite green based assay.

For test [2], the target named is T1, Nucleoside diphosphate phosphatase ENTPD5 (Homo sapiens). The experiment in a line: Inhibition of human recombinant ENTPD5 expressed in insect cells assessed as reduction in UDP hydrolysis up to 10 uM incubated for 1 hr in presence of UMP, GTP and ATP by Escherichia coli UMP kinase pyrH catalyzed UMP phosphorylation coupled luciferase assay.
Test [3] shares this target. The experiment in a line: Inhibition of human recombinant ENTPD5 expressed in insect cells assessed as reduction in UDP hydrolysis at 1 uM incubated for 1 hr in presence of UMP, GTP and ATP by Escherichia coli UMP kinase pyrH catalyzed UMP phosphorylation coupled luciferase assay.
For test [4], the target named is T2, Uridylate kinase (Escherichia coli (strain K12)) (UniProt P0A7E9).
T2 sequence (whole entry): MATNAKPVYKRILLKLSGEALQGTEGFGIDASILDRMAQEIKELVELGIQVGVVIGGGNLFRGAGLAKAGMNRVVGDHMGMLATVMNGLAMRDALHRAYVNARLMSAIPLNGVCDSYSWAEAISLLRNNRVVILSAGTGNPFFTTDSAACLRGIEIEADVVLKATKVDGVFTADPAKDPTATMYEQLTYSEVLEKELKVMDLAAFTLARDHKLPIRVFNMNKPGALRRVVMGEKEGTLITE
Kind of test: Inhibition of recombinant Escherichia coli UMP kinase pyrH catalyzed UMP phosphorylation in presence of GTP and ATP incubated for 1 hr by luminescence based assay.

Take `COc1cc(-c2ccc(/C=C3\SC(=N)N(c4nccs4)C3=O)o2)c(OC)cc1Cl`: the inhibition entry in test [1] and in test [3] was “Active” each time. The inhibition entry in test [2] was “Dose-dependent effect”. The inhibition entry in test [4] was “inactive”.

Turning to `N=C1NC(=O)/C(=C/C=C/c2ccc([N+](=O)[O-])o2)S1`, the inhibition result in test [1] and in test [3] was “Active” each time. Besides, the inhibition result in test [2] was “Dose-dependent effect”. Besides, the inhibition result in test [4] was “inactive”.

Turning to `COc1ccc(/C=C2\SC(=S)N(CCCC(=O)NNC(=O)c3ccccc3O)C2=O)cc1`, the inhibition entry in test [1] and in test [3] was “Active” throughout. Moreover, the inhibition entry in test [2] is “Dose-dependent effect”. The inhibition result in test [4] is “inactive”.

As to `S=C(NCc1ccccc1)Nc1ccc2nc(-c3ccco3)c(-c3ccco3)nc2c1`, the inhibition result in test [1] and in test [3] was “Active” in each case. Besides, in test [2], the inhibition result is “Dose-dependent effect”. In addition, the inhibition result in test [4] is “inactive”.

Regarding `O=C1NC(=O)C(=Cc2cn(-c3ccccc3)nc2-c2ccc(F)cc2)C(=O)N1`, the inhibition result in test [1] and in test [3] was “Active” throughout. The inhibition result in test [2] is “Dose-dependent effect”. The inhibition entry in test [4] is “inactive”.

Take `O=C1NC(=S)N(c2ccc(Cl)cc2)C(=O)/C1=C/c1ccc(I)o1`: the inhibition result in test [1] and in test [3] was “Active” in each case. For the same compound, the inhibition entry in test [2] is “Dose-dependent effect”. In test [4], the inhibition result is “inactive”.

Take `Cc1ccc(/C=C/C(=O)Nc2nc3ccc(Cl)cc3s2)o1`: the inhibition result in test [1] and in test [3] was “Active” throughout. For the same compound, the inhibition result in test [2] is “Dose-dependent effect”. Further, the inhibition result in test [4] was “inactive”.

With `CC(=O)c1ccc(-c2ccc(C=C3C(=O)N(C)C(=S)N(C)C3=O)o2)cc1`, the inhibition entry in test [1] and in test [3] was “Active” each time. In addition, the inhibition result in test [2] was “Dose-dependent effect”. Further, the inhibition result in test [4] is “inactive”.

`O=C1OC(c2ccccc2)OC(=O)C1=Cc1ccc(-c2cc([N+](=O)[O-])ccc2Cl)o1` (centres undefined): the inhibition entry in test [1] and in test [3] was “Active” throughout. For the same compound, the inhibition result in test [2] was “Dose-dependent effect”. Also, the inhibition result in test [4] was “inactive”.

With `CC1=C(C(=O)OC(C)C)C(c2cn(-c3ccccc3)nc2-c2ccc(Cl)cc2)C(C(=O)OC(C)C)=C(C)N1`, the inhibition result in test [1] and in test [3] was “Active” throughout. Also, in test [2], the inhibition result was “Dose-dependent effect”. In addition, in test [4], the inhibition entry is “inactive”.

Regarding `C=CCN1C(=O)/C(=C\c2cccn2C)C(=O)NC1=S`, the inhibition result in test [1] and in test [3] was “Active” throughout. Moreover, the inhibition result in test [2] was “Dose-dependent effect”. In addition, the inhibition result in test [4] is “inactive”.

Consider `COc1ccc2c(c1)C1C=CCC1C(c1ccc([N+](=O)[O-])cc1)N2` (centres undefined), for which the inhibition result in test [1] and in test [3] was “Active” in each case. Further, the inhibition result in test [2] was “Dose-dependent effect”. Moreover, in test [4], the inhibition entry was “inactive”.

With `O=S(=O)(c1cccc(C(F)(F)F)c1)N(CCc1csc2nc(-c3ccc4ccccc4c3)cn12)Cc1ccco1`, the inhibition result in test [1] and in test [3] was “Active” each time. In addition, the inhibition entry in test [2] is “Dose-dependent effect”. In addition, in test [4], the inhibition entry was “inactive”.

As for `Cc1ccc(-c2cc(C(F)(F)F)c3c(N)c(C(=O)c4ccc5c(c4)OCO5)sc3c2)s1`, the inhibition entry in test [1] and in test [3] was “Active” throughout. For the same compound, the inhibition entry in test [2] was “Dose-dependent effect”. Besides, the inhibition result in test [4] is “inactive”.

For `O=C(O)c1ccc(-c2ccc(/C=C3\SC(=S)N(c4ccc([N+](=O)[O-])cc4)C3=O)o2)cc1`, the inhibition result in test [1] and in test [3] was “Active” throughout. Moreover, the inhibition entry in test [2] was “Dose-dependent effect”. The inhibition result in test [4] is “inactive”.

As to `O=C(c1ccc2c(c1)C1C=CCC1C(c1ccc(Br)cc1)N2)N1CCCCCC1` (centres undefined), the inhibition entry in test [1] and in test [3] was “Active” in each case. The inhibition result in test [2] was “Dose-dependent effect”. In addition, the inhibition entry in test [4] was “inactive”.

For `O=C1NC(=O)N(c2ccc(Br)cc2)C(=O)/C1=C/c1c[nH]c2ccccc12`, the inhibition entry in test [1] and in test [3] was “Active” throughout. The inhibition entry in test [2] is “Dose-dependent effect”. Also, the inhibition entry in test [4] was “inactive”.

In the case of `O=C1NC(=O)N(Cc2ccco2)C(=O)/C1=C\c1ccc(-c2ccc(Cl)c([N+](=O)[O-])c2)o1`, the inhibition result in test [1] and in test [3] was “Active” each time. Moreover, the inhibition result in test [2] is “Dose-dependent effect”. Further, the inhibition result in test [4] is “inactive”.

Take `COc1cc(C2Nc3cccc4cccc(c34)N2)cc(I)c1O`: the inhibition result in test [1] and in test [3] was “Active” throughout. Further, in test [2], the inhibition entry is “Dose-dependent effect”. Also, the inhibition entry in test [4] is “inactive”.

For the compound `N#Cc1ccccc1COc1ccc(/C=C2/SC(=S)NC2=O)cc1Br`, the inhibition result in test [1] and in test [3] was “Active” in each case. The inhibition entry in test [2] is “Dose-dependent effect”. Further, in test [4], the inhibition result was “inactive”.

Take `CCC(C)(C)C1CCc2c(sc(NC(=O)c3ccoc3C)c2C(N)=O)C1` (centres undefined): the inhibition result in test [1] and in test [3] was “Active” in each case. The inhibition entry in test [2] is “Dose-dependent effect”. For the same compound, the inhibition entry in test [4] is “inactive”.

As for `CC(C)(C)c1cc(CN(CCO)CCO)cc(C(C)(C)C)c1O`, the inhibition entry in test [1] and in test [3] was “Active” throughout. For the same compound, the inhibition result in test [2] was “Dose-dependent effect”. For the same compound, the inhibition entry in test [4] was “inactive”.

As for `O=C1NC(=O)N(c2ccc(Cl)cc2)C(=O)/C1=C/c1cnn(-c2ccccc2)c1`, the inhibition entry in test [1] and in test [3] was “Active” in each case. In test [2], the inhibition entry is “Dose-dependent effect”. Besides, the inhibition entry in test [4] is “inactive”.

For `O=C(O)c1cccc(N2N=C(C(F)(F)F)/C(=C/c3ccc(-c4ccc(S(=O)(=O)Nc5nccs5)cc4)o3)C2=O)c1`, the inhibition entry in test [1] and in test [3] was “Active” each time. Besides, the inhibition result in test [2] was “Dose-dependent effect”. In test [4], the inhibition entry is “inactive”.

For `CCOc1cc(/C=C2\SC(=S)NC2=O)cc(Br)c1OCc1cccc2ccccc12`, the inhibition entry in test [1] and in test [3] was “Active” in each case. For the same compound, the inhibition result in test [2] was “Dose-dependent effect”. The inhibition result in test [4] is “inactive”.

As for `C=C[S+]([O-])c1sc(Cl)c(N2CCN(c3c(Cl)sc([S+]([O-])C=C)c3[N+](=O)[O-])CC2)c1[N+](=O)[O-]` (centres undefined), the inhibition entry in test [1] and in test [3] was “Active” throughout. The inhibition result in test [2] is “Dose-dependent effect”. Moreover, the inhibition result in test [4] is “inactive”.

With `O=C1S/C(=C/c2ccco2)C(=O)N1c1ccc(Cl)cc1`, the inhibition entry in test [1] and in test [3] was “Active” throughout. Further, the inhibition entry in test [2] is “Dose-dependent effect”. The inhibition result in test [4] was “inactive”.

`Cc1cc(/C=C2\C(=O)NC(=S)N(c3cccc(Cl)c3)C2=O)c(C)n1-c1ccc(Br)cc1`: the inhibition result in test [1] and in test [3] was “Active” throughout. In addition, the inhibition result in test [2] is “Dose-dependent effect”. In test [4], the inhibition result is “inactive”.

For the compound `N#CC1=C(N)NC(SCC(=O)c2cc3ccccc3oc2=O)=C(C#N)C1=C1C=CC(=O)C=C1`, the inhibition entry in test [1] and in test [3] was “Active” in each case. In test [2], the inhibition result was “Dose-dependent effect”. For the same compound, in test [4], the inhibition entry is “inactive”.

Consider `Cc1ccc2ncc(C(CC(=O)N3CCN(C(c4ccccc4)c4ccccc4)CC3)c3ccc4c(c3)OCO4)n2c1` (centres undefined), for which the inhibition entry in test [1] and in test [3] was “Active” each time. Besides, in test [2], the inhibition result was “Dose-dependent effect”. Moreover, the inhibition entry in test [4] is “inactive”.

As for `O=C1/C(=C/c2ccc(O)c(O)c2)SC(=S)N1c1ccc([N+](=O)[O-])cc1`, the inhibition entry in test [1] and in test [3] was “Active” each time. Besides, the inhibition result in test [2] is “Dose-dependent effect”. Besides, the inhibition entry in test [4] was “inactive”.
